Results taken from PMC2225439, “Amyloid as a Depot for the Formulation of Long-Acting Drugs” (PLoS Biology, 2008).

How the values were obtained:
[1] = Peptide release from amyloid (dialysis experiment); settings: 3.5-kDa MWCO, room temperature, 35 d
Procedure: Although amyloid fibrils are very stable, they must follow thermodynamic equilibrium conditions between fibril and monomer. […] A total of 200 μl of 30-d-old GnRH analog (in) was dialyzed 4 ml of 5% D-mannitol (out). A 3.5-kDa cutoff, which is twice the size of the peptides studied, was chosen to ensure that the released particles are most likely monomeric. The peptide release and the remaining aggregates were monitored by fluorescence over 35 d at room temperature.
A 200-μl aliquot of aged GnRH in solution conditions given above was transferred into a 0.6-ml Eppendorf tube with a hole in the cap. To study the effect of heparin on peptide release, a mixture of hormone analog and heparin (1:1 v/v) was incubated overnight in parallel with a half-diluted peptide fibril sample in 5% D-mannitol and 0.01% sodium azide. The hole in the cap of the Eppendorf tube was sealed with a 3.5-kDa molecular weight cutoff (MWCO) membrane. Next, the Eppendorf tube was inserted upside down into a 15-ml Falcon tube containing 4 ml of 5% D-mannitol in water and 0.01% sodium azide. Care was taken to make sure that the membrane was exposed to solutions both in and outside and that any bubbles at the membrane interface were removed. The tubes were then incubated at room temperature. To measure the remaining peptide concentration inside the 0.6-ml Eppendorf tube, a 5-μl aliquot was diluted into 500 μl water with 5% D-mannitol, 0.01% sodium azide, and the fluorescence was measured with excitation at 280 nm and emission in the range of 290–500 nm. The excitation slit width was 2 nm, and emission slit width was 11 nm. To determine the peptide concentration outside the membrane in the 15-ml tube, an aliquot of 250 μl of solution was taken from the releasing medium, diluted into 500 μl final volume by 5% D-mannitol, 0.01% sodium azide, and fluorescence was measured. Following spectra recording, the dialysis system was reassembled as described above. […] The normalized intensity maxima from inside and outside the membrane were plotted as a function of time and fit by an exponential function to extract the half-life of the fibrils and the K off, respectively. […] The extracted half-life, t 1/2, is the time taken, during which the fluorescence signal inside the 0.6-ml Eppendorf tube drops by 50%.

[2] = Electron microscopy of negative-stained samples; format: physicochemical; parameters: key to EM^8 / EM^30: fib, fibrils; nfib, no fibrils; settings: 1 mg/ml in 5% D-mannitol, room temperature, at least two independent experiments
Procedure: To formally determine the formation of amyloid fibrils by GnRH analogs and to characterize other possible assemblies present in the sample, EM was done on all of the GnRH analogs. Since the EM analysis is for a qualitative interpretation only, amyloid fibrils and other small aggregates might be observed under the electron microscope even if only a minority of the sample forms fibrils. Samples were studied after 8 and 30 d of incubation. […] The fibrils show a wide variety of morphologies, comprising helical ultrastructures with varying degrees of lateral association. Furthermore, the fibrils are composed of one or more filaments, resulting in overall diameters ranging from approximately 6 to 12 nm. No oligomers are observed for the long-acting compounds at day 8 or at day 30 (Figures 2 and S2).
GnRH analogs were dissolved in a glass tube in 1 ml of 5% D-mannitol and 0.01% sodium azide at a concentration of 1 mg/ml. The GnRH analogs were then incubated at room temperature without stirring. The fibril formation was monitored by EM, CR, and time-resolved by Thio T binding studies. Three independent experiments were performed for each sample.
A 5-μl aliquot of peptide sample was diluted into 50 μl of water to a peptide concentration of approximately 50 μM, spotted on a glow-discharged, carbon-coated Formvar grid (Electron Microscopy Sciences), incubated for 5 min, washed with distilled water, and then stained with 1% (w/v) aqueous uranyl formate solution. Uranyl formate solutions were filtered through 0.2-μm sterile syringe filters (Corning) before use. EM analysis was performed using a JEOL JEM-100CXII electron microscope at 80 kV with nominal magnifications between 36,000 and 72,000. Images were recorded digitally by using the SIS Megaview III imaging system. At least two independent experiments were carried out for each sample.

wild-type GnRH = target: T1, wild-type GnRH (Homo sapiens, UniProt P01148); experiment: Seeding of wild-type GnRH by L20 fibrils; settings: matured fibrils 5% v/v with GnRH solution 95% v/v, 5% D-mannitol, room temperature without stirring, 1 mo; Thio T and EM
T1 construct: gonadotropin-releasing hormone (GnRH); made in house; host or cells: chemical solid-phase synthesis (no expression host)
Source text: Another concern for the application of amyloids in the formulation of long-acting drugs is the potential multiplication and spread of amyloids through seeding. Only a small amount of fibrillar seed is needed to induce and accelerate self-polymerization in the presence of monomeric amyloid protein/peptide. Within the context of GnRH, perhaps amyloids of the injected GnRH analogs may act as the seeds and the host GnRH as the reservoir of the free monomer. To mimic this situation in vitro, a seeding reaction was set up with a small amount of matured, long-acting L20 fibrils (5% v/v) in presence of a solution of wild-type GnRH (95% v/v). […]
A total of 5 μl of matured L20 fibril solution at a concentration of 1 mg/ml in 5% D-mannitol, 0.01% sodium azide was mixed with 95 μl of freshly prepared GnRH solution in the same solution condition followed by incubation at room temperature without stirring. […] Once a week, a 10-μl aliquot was diluted into 500 μl water containing 5% D-mannitol, 0.01% sodium azide, and 10 μl of 1 mM Thio T to measure the Thio T fluorescence as described above. […] The protein concentration of the supernatant was measured by UV absorbance with ɛ280 of 6,500 M^−1cm^−1. […] The formation of amyloid was monitored regularly for the mixture (α-Syn+L20) and α-Syn by Thio T binding.

Substance: Ac-DNal-DCpa-Agl(Nic)-Ser-Aph(Ac)-DAph(Ac)-Leu-ILys-Pro-DAla-NH2 [L20]
- KD ([1]; dissociation constant of the aggregates = final monomer concentration, 200 μl of 30-d-old analog dialyzed against 4 ml 5% D-mannitol, fluorescence ex 280 nm): 8 µM
- t1/2 ([1]; half-life of fibrils: time in which fluorescence inside drops by 50%, dialysis of 30-d-old analog, 5% D-mannitol, exponential fit, 2 d = intrinsic diffusion of monomer): 35 days
- EM^8 ([2]; electron microscopy at day 8 of incubation): fib
- EM^30 ([2]; electron microscopy at day 30 of incubation): fib
- seeding of wild-type GnRH (wild-type GnRH): unable to seed wild-type GnRH
